Data from PubChem BioAssay (NCI).
Several values for one entry are separate records, joined by “and”; a condition that tells them apart may be missing. Identical values can stand only once.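 Where inhibition never reached the appropriate level, the endpoint shown equals the highest concentration tested. Otherwise, values were interpolated linearly from a five-concentration, 48-hour dose response in 96-well plates. GI50: concentration for 50% inhibition of growth. Definition used: TGI = concentration required for complete inhibition of growth.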

What was measured:
Experiment in all cases: NCI-60 cell line screen, 48 h
CAKI-1 renal = system: CAKI-1 renal
HCT-116 colon = system: HCT-116 colon
M14 melanoma = system: M14 melanoma
NCI-H460 lung = system: NCI-H460 lung
NCI-H522 lung = system: NCI-H522 lung
SNB-19 CNS = system: SNB-19 CNS
TK-10 renal = system: TK-10 renal
U251 CNS = system: U251 CNS
UACC-257 melanoma = system: UACC-257 melanoma
DU-145 prostate = system: DU-145 prostate

| Structure (SMILES) | TGI (CAKI-1 renal) | TGI (HCT-116 colon) | TGI (M14 melanoma) | TGI (NCI-H460 lung) | TGI (NCI-H522 lung) | TGI (SNB-19 CNS) | TGI (TK-10 renal) | TGI (U251 CNS) | TGI (UACC-257 melanoma) | TGI (DU-145 prostate) | GI50 (HCT-116 colon) | GI50 (M14 melanoma) | GI50 (NCI-H460 lung) | GI50 (UACC-257 melanoma) |
| --- | --- | --- | --- | --- | --- | --- | --- | --- | --- | --- | --- | --- | --- | --- |
| Cc1ccccc1-n1c(C)nc(-c2ccccc2)cc1=O | > 100 µM | > 100 µM | > 100 µM | > 100 µM | > 100 µM | > 100 µM | > 100 µM | > 100 µM | > 100 µM | – | – | – | – | – |
| O=C(O)c1ccccc1NC(=O)C1CCCCC1 | – | > 100 µM | > 100 µM | > 100 µM | – | > 100 µM | > 100 µM | > 100 µM | > 100 µM | – | – | – | – | – |
| C[C@H]1C(=O)CC[C@]2(C)CCC(C(C)(C)O)CC12O (stereo partly drawn) | > 100 µM | > 100 µM | > 100 µM | > 100 µM | > 100 µM | > 100 µM | > 100 µM | > 100 µM | > 100 µM | – | – | – | – | – |
| c1ccc2c(c1)C1=NCCN1c1ccccc1-2 | 9.05 µM | 10.4 µM | 13.3 µM | 4 µM | 3.13 µM | 16.2 µM | 12 µM | 14 µM | 7.71 µM | – | – | – | – | – |
| O=S(=O)(C/C(=N\O)c1ccccc1)c1ccccc1 | > 100 µM | > 100 µM | > 100 µM | > 100 µM | > 100 µM | > 100 µM | > 100 µM | > 100 µM | > 100 µM | – | – | – | – | – |
| Nc1n[nH]c(CCc2nc(N)n[nH]2)n1 | > 100 µM | > 100 µM | > 100 µM | > 100 µM | > 100 µM | > 100 µM | > 100 µM | > 100 µM | > 100 µM | – | – | – | – | – |
| Cc1cc2c(C)n(Cc3ccc(Cl)cc3Cl)nc2c(C(=O)O)c1C | – | > 100 µM | – | > 100 µM | – | > 100 µM | > 100 µM | > 100 µM | > 100 µM | – | – | – | – | – |
| CC1=CC(=O)N(c2c(C)cccc2Cl)C(C)N1 (stereo not drawn) | > 100 µM | > 100 µM | > 100 µM | > 100 µM | > 100 µM | > 100 µM | > 100 µM | > 100 µM | > 100 µM | – | – | – | – | – |
| O=C1C=CC(CC(=O)c2ccc3ccccc3c2)O1 (stereo not drawn) | > 100 µM | 32.3 µM | 93.9 µM | 55.2 µM | – | 76.8 µM | 69.8 µM | 32.1 µM | > 100 µM | – | – | – | – | – |
| COC(=O)C1=CC2OC1(C)CCC2=O (stereo not drawn) | > 100 µM | > 100 µM | > 100 µM | > 100 µM | > 100 µM | > 100 µM | > 100 µM | > 100 µM | > 100 µM | – | – | – | – | – |
| COc1ccc2c(c1OC)C(=O)c1cnccc1C2=O | > 100 µM | > 100 µM | > 100 µM | > 100 µM | > 100 µM | > 100 µM | > 100 µM | > 100 µM | > 100 µM | – | – | – | – | – |
| CCCCCCC(/C=N/O)C(C)(O)CCC (stereo not drawn) | > 100 µM | > 100 µM | > 100 µM | > 100 µM | > 100 µM | > 100 µM | > 100 µM | > 100 µM | > 100 µM | – | – | – | – | – |
| O=C1CC(c2ccc(Cl)cc2)Oc2ccccc21 (stereo not drawn) | 77.3 µM | > 100 µM | 58.4 µM | 45.3 µM | – | 77.7 µM | 63.4 µM | > 100 µM | > 100 µM | > 100 µM | – | – | – | – |
| O=C1c2nc3n(c2C(=O)c2c1nc1n2CCC1)CCC3 | 23.9 µM | 9.22 µM | 4.65 µM | 6.24 µM | 19.5 µM | 27.9 µM | > 77.2 µM | 34 µM | 5.6 µM and 5.72 µM | – | 4.29 µM | 4.88 µM | 3.89 µM | 2.47 µM |
| O=[N+]([O-])c1ccc(Cl)cc1C1SCc2nc3ccccc3n21 (stereo not drawn) | > 100 µM | > 100 µM | > 100 µM | 23.4 µM | 80.1 µM | > 100 µM | > 100 µM | > 100 µM | > 100 µM | – | – | – | – | – |
| O=C(NO)c1ccc(O)c(O)c1 | > 100 µM | > 100 µM | > 100 µM | > 100 µM | > 100 µM | > 100 µM | > 100 µM | > 100 µM | > 100 µM | – | – | – | – | – |
| O=C(O)C1=C(C(=O)Nc2ccc(NC(=O)C3=C(C(=O)O)C4C=CC3C4)cc2)C2C=CC1C2 | > 100 µM | > 100 µM | > 100 µM | > 100 µM | – | > 100 µM | > 100 µM | > 100 µM | > 100 µM | – | – | – | – | – |
| COC(=O)C1=C(c2ccc3c(c2)OCO3)OC(c2cc(OC)c(OC)c(OC)c2)C1 (stereo not drawn) | > 100 µM | 85.4 µM | 84.1 µM | > 100 µM | – | > 100 µM | > 100 µM | > 100 µM | > 100 µM | – | – | – | – | – |
